Consider 22 compounds from PubChem BioAssay AID330 (DTP/NCI, 2004).

The assay concerns P388 leukemia ip, CD2F1 mice, survival T/C. In words: NCI In Vivo Anticancer Drug Screen. Data for tumor model P388 Leukemia (intraperitoneal) in CD2F1 (CDF1) mice. To be noted: endpoint: median survival time, higher = longer survival. An outline of the steps: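 Mice carrying the transplanted tumor received test compound or vehicle. Survival was recorded in each group, and the value is the treated-group measurement divided by that of the vehicle-treated control group.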

The mark [1] stands for this setting: dose: 25.0 mg/kg/injection, schedule: Q01DX005 (ip), vehicle: Klucel (hydroxypropylcellulose) (HPC).
Setting [2] is: dose: 50.0 mg/kg/injection, schedule: Q01DX005 (ip), vehicle: Klucel (hydroxypropylcellulose) (HPC).
Where [3] appears, read: dose: 100.0 mg/kg/injection, schedule: Q01DX005 (ip), vehicle: Klucel (hydroxypropylcellulose) (HPC).
Where [4] appears, read: dose: 400.0 mg/kg/injection, schedule: Q04DX002 (ip), vehicle: saline.
The mark [5] stands for this setting: dose: 60.0 mg/kg/injection, schedule: Q01DX005 (ip), vehicle: saline with Tween-80.
Setting [6] is: dose: 120.0 mg/kg/injection, schedule: Q01DX005 (ip), vehicle: saline with Tween-80.
Where [7] appears, read: dose: 240.0 mg/kg/injection, schedule: Q01DX005 (ip), vehicle: saline with Tween-80.
[8] abbreviates: dose: 50.0 mg/kg/injection, schedule: Q01DX005 (ip), vehicle: saline.
Setting [9] is: dose: 100.0 mg/kg/injection, schedule: Q01DX005 (ip), vehicle: saline.
Where [10] appears, read: dose: 12.5 mg/kg/injection, schedule: Q01DX005 (ip), vehicle: saline.
The mark [11] stands for this setting: dose: 25.0 mg/kg/injection, schedule: Q01DX005 (ip), vehicle: saline.
Where [12] appears, read: dose: 3.13 mg/kg/injection, schedule: Q01DX009 (ip), vehicle: distilled water + Tween-80.
The mark [13] stands for this setting: dose: 6.25 mg/kg/injection, schedule: Q01DX009 (ip), vehicle: distilled water + Tween-80.
Where [14] appears, read: dose: 12.5 mg/kg/injection, schedule: Q01DX009 (ip), vehicle: distilled water + Tween-80.
[15] abbreviates: dose: 25.0 mg/kg/injection, schedule: Q01DX009 (ip), vehicle: distilled water + Tween-80.
The mark [16] stands for this setting: dose: 50.0 mg/kg/injection, schedule: Q01DX009 (ip), vehicle: distilled water + Tween-80.
Setting [17] is: dose: 200.0 mg/kg/injection, schedule: Q01DX005 (ip), vehicle: Klucel (hydroxypropylcellulose) (HPC).

Where “and” joins values, the source holds several entries; their conditions need not be identical. Identical values can stand only once. Inconclusive results and toxic doses are left out. Peptide text beside a SMILES is read from it. * marks the point of attachment. Cbz = O=C(OCc1ccccc1)*

Take `COc1cccc2c1C(=O)c1c(O)c3c(c(O)c1C2=O)C[C@@](O)(C(C)=O)C[C@@H]3OC1CC(N(Cc2ccccc2)Cc2ccccc2)C(O)C(C)O1` (stereo partly drawn): the T/C is, setting by setting: (dose: 0.78 mg/kg/injection, schedule: Q01DX009 (ip), vehicle: water) 105 % of control; (dose: 1.56 mg/kg/injection, schedule: Q01DX009 (ip), vehicle: water) 114 % of control; (dose: 6.25 mg/kg/injection, schedule: Q01DX009 (ip), vehicle: water) 156 % of control; (dose: 12.5 mg/kg/injection, schedule: Q01DX009 (ip), vehicle: water) 189 % of control and 221 % of control; (dose: 13.0 mg/kg/injection, schedule: Q04DX003 (ip), vehicle: water) 158 % of control; (dose: 21.6 mg/kg/injection, schedule: Q04DX003 (ip), vehicle: water) 180 % of control. Besides, the T/C (dose: 25.0 mg/kg/injection, schedule: Q01DX009 (ip), vehicle: water) was 247 % of control and 271 % of control; the T/C (dose: 50.0 mg/kg/injection, schedule: Q01DX009 (ip), vehicle: water) was 92 % of control; the T/C (dose: 60.0 mg/kg/injection, schedule: Q04DX003 (ip), vehicle: water) is 94 % of control.

`CC1(C)[C@H](C(=O)O)N2C(=O)[C@@H](NC(=O)C(c3ccccc3)c3ccccc3)[C@H]2S1=O` (stereo partly drawn): the T/C under setting [1] is 101 % of control, the T/C under setting [2] is 99 % of control and the T/C under setting [3] was 101 % of control.

On to `CNC1CCCCC1[N+](C)(C)C` (stereo not drawn), for which the T/C runs as follows: (dose: 5.0 mg/kg/injection, schedule: Q01DX009 (ip), vehicle: saline sonified) 95 % of control; (dose: 10.0 mg/kg/injection, schedule: Q01DX009 (ip), vehicle: saline sonified) 100 % of control; (dose: 20.0 mg/kg/injection, schedule: Q01DX009 (ip), vehicle: saline sonified) 100 % of control.

Take `C/C(=C\c1cc2cc(C(=N)N)ccc2o1)c1cc2cc(C(=N)N)ccc2o1`: the T/C under setting [4] was 159 % of control.

Turning to `CC(=O)Nc1cc2cc(NS(=O)(=O)c3cc(C(F)(F)F)cc(C(F)(F)F)c3)ccc2oc1=O`, the T/C reads like this: (dose: 1.5 mg/kg/injection, schedule: Q01DX005 (ip), vehicle: Klucel + Tween-80) 94 % of control; (dose: 3.0 mg/kg/injection, schedule: Q01DX005 (ip), vehicle: Klucel + Tween-80) 99 % of control and 91 % of control; (dose: 6.0 mg/kg/injection, schedule: Q01DX005 (ip), vehicle: Klucel + Tween-80) 96 % of control; (dose: 12.0 mg/kg/injection, schedule: Q01DX005 (ip), vehicle: Klucel + Tween-80) 91 % of control; (dose: 12.5 mg/kg/injection, schedule: Q01DX005 (ip), vehicle: Klucel + Tween-80) 87 % of control; (dose: 50.0 mg/kg/injection, schedule: Q01DX005 (ip), vehicle: Klucel + Tween-80) 95 % of control.

Take `COC(=O)C1=NC(=S)N=C(C(=O)OC)C1(C)C(=O)c1ccc(Cl)cc1`: the T/C is, setting by setting: under setting [5], 95 % of control; under setting [6], 99 % of control; under setting [7], 94 % of control.

For the compound `CC(C)C(=O)C(O)C(C)C` (stereo not drawn), the T/C by setting is: under setting [8], 92 % of control; under setting [9], 103 % of control; (dose: 200.0 mg/kg/injection, schedule: Q01DX005 (ip), vehicle: saline) 100 % of control.

Take `CN(C)c1nc(N(C)C)oc(=[N+](C)C)n1`: the T/C was 106 % of control (dose: 6.25 mg/kg/injection, schedule: Q01DX005 (ip), vehicle: saline); 103 % of control under setting [10]; 113 % of control under setting [11].

As to `CC(=O)C(Cl)C(=O)c1c(C)[nH]n(-c2ccccc2)c1=O` (stereo not drawn), the T/C reads like this: under setting [2], 110 % of control; under setting [3], 123 % of control.

For `Cc1cc2nc(C)nn2c(C)n1`, the T/C is, setting by setting: (dose: 25.0 mg/kg/injection, schedule: Q04DX003 (ip), vehicle: saline) 104 % of control; (dose: 50.0 mg/kg/injection, schedule: Q04DX003 (ip), vehicle: saline) 96 % of control; (dose: 100.0 mg/kg/injection, schedule: Q04DX003 (ip), vehicle: saline) 111 % of control and 88 % of control; (dose: 400.0 mg/kg/injection, schedule: Q04DX003 (ip), vehicle: saline) 88 % of control.

Turning to `COC1=CC(O)(CC(N)=O)c2ccccc2C1=O` (stereo not drawn), the T/C runs as follows: under setting [12], 99 % of control; under setting [13], 100 % of control; under setting [14], 98 % of control; under setting [15], 102 % of control; under setting [16], 92 % of control; (dose: 100.0 mg/kg/injection, schedule: Q01DX009 (ip), vehicle: distilled water + Tween-80) 92 % of control.

Consider `CCC1(CCC(=O)OC)CCC[N+]2=C1c1[nH]c3ccc(Br)cc3c1CC2` (stereo not drawn), for which the T/C reads like this: (dose: 6.25 mg/kg/injection, schedule: Q01DX005 (ip), vehicle: saline with Tween-80) 97 % of control; (dose: 12.5 mg/kg/injection, schedule: Q01DX005 (ip), vehicle: saline with Tween-80) 100 % of control; (dose: 25.0 mg/kg/injection, schedule: Q01DX005 (ip), vehicle: saline with Tween-80) 94 % of control; under setting [8], 86 % of control.

As to `CSc1cccc(NC(=O)Nc2nc3c(C)cccc3s2)c1`, the T/C is 96 % of control under setting [2], 95 % of control under setting [3] and 90 % of control under setting [17].

As for `Cn1ccnc1[Si](C)(C)C`, the T/C under setting [5] was 101 % of control, the T/C under setting [6] was 107 % of control and the T/C under setting [7] is 99 % of control.

Turning to `CC(C)CC(NC(=O)C(Cc1cnc[nH]1)NC(=O)OCc1ccccc1)C(=O)O` (stereo not drawn) (Cbz-His-Leu-OH; configuration not given here), the T/C under setting [2] is 102 % of control, the T/C under setting [3] is 104 % of control and the T/C under setting [17] is 104 % of control.

As for `CCC(C)(C)C(=O)Nc1cccc(OC(=O)NC)c1`, the T/C (dose: 25.0 mg/kg/injection, schedule: Q01DX009 (ip), vehicle: saline with Tween-80) was 100 % of control; the T/C (dose: 50.0 mg/kg/injection, schedule: Q01DX009 (ip), vehicle: saline with Tween-80) is 92 % of control; the T/C (dose: 100.0 mg/kg/injection, schedule: Q01DX009 (ip), vehicle: saline with Tween-80) was 101 % of control.

`O=C(Nc1cc(Cl)cc(Cl)c1)N1CCOCC1`: the T/C reads like this: under setting [5], 92 % of control; under setting [6], 92 % of control; under setting [7], 92 % of control.

As to `Nc1ccnc(Sc2ncccc2[N+](=O)[O-])n1`, the T/C by setting is: under setting [2], 100 % of control; under setting [3], 100 % of control; under setting [17], 93 % of control.

Consider `Cc1cc2c(cc1C)Nc1oc3ccc4ccccc4c3c(=O)c1C=N2`, for which the T/C (dose: 6.25 mg/kg/injection, schedule: Q01DX005 (ip), vehicle: Klucel (hydroxypropylcellulose) (HPC)) is 104 % of control; the T/C (dose: 12.5 mg/kg/injection, schedule: Q01DX005 (ip), vehicle: Klucel (hydroxypropylcellulose) (HPC)) is 99 % of control; the T/C under setting [1] was 96 % of control; the T/C under setting [17] was 89 % of control.

`CC(C)NC(=O)OCc1c(COC(=O)NC(C)C)c(-c2ccc(F)c(F)c2)n2c1CCC2`: the T/C under setting [12] is 151 % of control; the T/C under setting [13] is 160 % of control; the T/C under setting [14] was 172 % of control and 178 % of control; the T/C under setting [15] was 123 % of control and 211 % of control; the T/C under setting [16] is 109 % of control and 92 % of control.

With `[Cl][Co][Cl].[NH-]CC[N-]CC[N-]CC[NH-]`, the T/C runs as follows: under setting [10], 100 % of control; under setting [11], 104 % of control; under setting [8], 114 % of control and 107 % of control and 113 % of control; (dose: 50.0 mg/kg/injection, schedule: Q01DX009 (ip), vehicle: saline) 102 % of control; under setting [9], 109 % of control; (dose: 100.0 mg/kg/injection, schedule: Q01DX009 (ip), vehicle: saline) 100 % of control.

On to `Cc1ccc(-c2cnc3[nH]c(=O)[nH]c(=O)c3n2)cc1`, for which the T/C is, setting by setting: (dose: 100.0 mg/kg/injection, schedule: Q04DX002 (ip), vehicle: saline) 97 % of control; (dose: 200.0 mg/kg/injection, schedule: Q04DX002 (ip), vehicle: saline) 106 % of control; under setting [4], 91 % of control.
